Laboratory results: ChEMBL document CHEMBL1201862, “PubChem BioAssay data set” (2004)
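These data come from cells grown in 96-well plates and exposed to compound for 48 hours at five concentrations. The concentration for 50% growth inhibition is given as GI50.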 Activity calls are given as the source filed them. Rule as the data show it: active = GI50 up to about 1.1 µM and inactive = higher.

Columns and labels:
Assay in all cases: inhibition of tumour cell growth, NCI panel, 48 h
[1] = tested on: NCI-H23
[2] = tested on: ACHN
[3] = tested on: NCI-H460
[4] = tested on: SNB-75
[5] = tested on: SF-268
[6] = tested on: NCI-H226
[7] = tested on: MCF7
[8] = tested on: SF-539
[9] = tested on: UACC-62
[10] = tested on: Hs-578T
[11] = tested on: DU-145
[12] = tested on: LOX IMVI
[13] = tested on: HCT-15
[14] = tested on: SNB-19
[15] = tested on: HT-29
[16] = tested on: CCRF-CEM
[17] = tested on: OVCAR-8
[18] = tested on: MOLT-4
[19] = tested on: HCT-116
[20] = tested on: MDA-MB-231

Row | Compound | GI50 [1] | GI50 [2] | GI50 [3] | GI50 [4] | GI50 [5] | GI50 [6] | GI50 [7] | GI50 [8] | GI50 [9] | GI50 [10] | GI50 [11] | GI50 [12] | GI50 [13] [µM] | GI50 [14] | GI50 [15] | GI50 [16] | GI50 [17] | GI50 [18] | GI50 [19] | GI50 [20]
1 | COC(OC)(c1ccccc1)C(I)I | 19.2 µM (inactive) | 16.5 µM (inactive) | 16.7 µM (inactive) | 13.1 µM (inactive) | 19.3 µM (inactive) | 20.8 µM (inactive) | 18.7 µM (inactive) | 12.7 µM (inactive) | 13.4 µM (inactive) | 20.1 µM (inactive) | 24.5 µM (inactive) | 13.4 µM (inactive) | 6.61 | 35.3 µM (inactive) | 15 µM (inactive) | 2.31 µM (inactive) | 17.9 µM (inactive) | 2.38 µM (inactive) | 4.91 µM (inactive) | 18.9 µM (inactive)
2 | COc1ccc2cc(NC(=O)Nn3cnnc3)ccc2c1 | > 100 µM (inactive) | > 100 µM (inactive) | > 100 µM (inactive) | 12.7 µM (inactive) | > 100 µM (inactive) | > 100 µM (inactive) | > 100 µM (inactive) | > 100 µM (inactive) | > 100 µM (inactive) | > 100 µM (inactive) | > 100 µM (inactive) | > 100 µM (inactive) | > 100 | > 100 µM (inactive) | > 100 µM (inactive) | > 100 µM (inactive) | > 100 µM (inactive) | > 100 µM (inactive) | > 100 µM (inactive) | > 100 µM (inactive)
3 | NC(CSC1(c2ccc(Cl)cc2)c2ccccc2-c2ccccc21)C(=O)O (stereo not given) | 19.1 µM (inactive) | 22.8 µM (inactive) | 18.1 µM (inactive) | 22.2 µM (inactive) | 20.5 µM (inactive) | 27.2 µM (inactive) | 17.6 µM (inactive) | 20.9 µM (inactive) | 15.4 µM (inactive) | 18.2 µM (inactive) | 34.5 µM (inactive) | 16.7 µM (inactive) | 21.6 | 21.3 µM (inactive) | 37.8 µM (inactive) | 29.1 µM (inactive) | 17.7 µM (inactive) | 20 µM (inactive) | 16.6 µM (inactive) | 18 µM (inactive)
4 | CC(=O)NC1C(O)C(O)C(CO)OC1n1nc(SCc2ccccc2)c(=O)[nH]c1=O (stereo not given) | > 100 µM (inactive) | > 100 µM (inactive) | > 100 µM (inactive) | > 65 µM (inactive) | > 100 µM (inactive) | > 100 µM (inactive) | > 100 µM (inactive) | > 100 µM (inactive) | > 100 µM (inactive) | > 100 µM (inactive) | > 100 µM (inactive) | > 100 µM (inactive) | > 100 | > 100 µM (inactive) | > 100 µM (inactive) | > 100 µM (inactive) | > 100 µM (inactive) | > 100 µM (inactive) | > 100 µM (inactive) | > 100 µM (inactive)
5 | O=C(/C=C/c1ccccc1Br)c1ccccc1 | 4.39 µM (inactive) | 1.8 µM (inactive) | 4.37 µM (inactive) | 12 µM (inactive) | 3.58 µM (inactive) | 17.1 µM (inactive) | 0.427 µM (active) | 4.1 µM (inactive) | 11.4 µM (inactive) | 5.02 µM (inactive) | 8.07 µM (inactive) | 1.36 µM (inactive) | 2.11 | 10.9 µM (inactive) | 3.03 µM (inactive) | 0.259 µM (active) | 2.63 µM (inactive) | 2.84 µM (inactive) | 1.89 µM (inactive) | 13.2 µM (inactive)
